Data taken from article PMC12172083, “Identification of a novel and high affinity MIF inhibitor via structure-based pharmacophore modelling, molecular docking, molecular dynamics simulations, and biological evaluation” (Journal of Enzyme Inhibition and Medicinal Chemistry, 2025).
One block for each compound: values may come before it.

Assays:
MIF [1] = system: MIF; design: method as in PMID 34153665, PMID 33823428; details: cited from earlier work
MIF [2] = molecular target: T1, MIF (Homo sapiens, UniProt P14174); test: MST assay, binding affinity to MIF; details: mean ± SD
T1 construct: purchased Abcam ab51096
T1 sequence (P14174 2-115 limits assumed): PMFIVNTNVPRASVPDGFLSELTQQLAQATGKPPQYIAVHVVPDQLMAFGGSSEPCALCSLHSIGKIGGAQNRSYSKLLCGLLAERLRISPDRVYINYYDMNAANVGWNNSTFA
Experimental: (§1) All chemicals were purchased from commercial suppliers without additional purification required. […] The high-performance liquid chromatography (HPLC) spectra data for each compound were provided in the Supplementary Materials (Figures S2.1–2.6). RAW 264.7 murine macrophages were purchased from the American Type Culture Collection (ATCC, TIB-71). 10% foetal bovine serum (FBS), 100 units/mL of penicillin, and 100 µg/mL of streptomycin were added to the Dulbecco’s modified Eagle’s medium (DMEM). The FBS, penicillin, streptomycin, and DMEM were purchased from Gibco (Grand Island, NY, USA). The cells were cultured in the incubator that was humidified with 5% CO2 and 95% air at 37 °C. The human recombinant MIF was purchased from Abcam (Cambridge, MA, USA) and catalogue number was ab51096.
The MST assay was used to measure the Kd value, aiming to assess the binding affinity between small molecules and targeted proteins in the field of drug discovery. […] The degree of labelling (DOL) of the MIF protein was calculated. The ideal DOL was in the range of 0.5–1. The Monolith™ RED-NHS second-generation protein labelling kit (NanoTemper Technologies) was used for the fluorescent labelling of MIF protein. We strictly followed the instructions of the kit for the experiment. The PBST (Phosphate-Buffered Saline with Tween) solution containing 0.05% Tween 20 was configured. The ligand was diluted into 16 concentration gradients using the semi-dilution method. The fluorescently labelled protein was added and thoroughly mixed, then incubated for 5 min in the dark. The solution was taken by capillary tube and assayed with the Monolith NT.115 instrument (NanoTemper Technologies). Subsequently, the difference was recorded in fluorescence intensity. The fluorescence intensity was plotted against the concentration of the hit compounds to generate a fluorescence dose curve, following which the Kd value was calculated.

MIF [3] = molecular target: T1, MIF; test: ITC assay, binding affinity to MIF; details: 25 °C, pH 7.5, mean ± SD
Experimental: as §1

MIF-CD74 binding = molecular target: T2, MIF-CD74 binding (Homo sapiens, UniProt P14174); test: Pull down assay of GST-MIF with CD74; details: 40 nM biotin-Hit-1; 100 nM and 200 nM CD74; western blot
T2 sequence (P14174 1-115): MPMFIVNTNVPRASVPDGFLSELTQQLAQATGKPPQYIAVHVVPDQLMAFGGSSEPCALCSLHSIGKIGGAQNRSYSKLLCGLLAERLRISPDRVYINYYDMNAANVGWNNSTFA
Experimental: The pull down experiment was executed as described previously[36] and in line with defined standard principles. The pre-washed beads with purified GST-MIF were incubated for 2 h at 4 °C. The sample was centrifuged at 10 000 rpm and the purified protein was transferred to a new Eppendorf (EP) tube to remove non-specifically bound background proteins. The 40 nM of biotin-Hit-1 was added to the purified protein for incubation. […] The beads were washed five times with PBST. The proteins were denatured at 100 °C for 5 min. The protein bands were isolated and segregated via sodium dodecyl sulphate-polyacrylamide gel electrophoresis (SDS-PAGE) technique. The polyvinylidene fluoride (PVDF) membrane was pre-soaked in methanol. The protein bands were transferred onto the PVDF membrane under the condition of 200 mA. The membrane was blocked by incubating it with 3% bovine serum albumin (BSA) in PBS at 37 °C for 2 h. After every incubation period ended, the membrane was washed three times successively with PBST, with each washing step taking 10 min. Subsequently, the membrane was subjected to incubating with the primary antibody on a shaker overnight at 4 °C. […] Thereafter, the light signal was detected by a sophisticated detection system. Employing the Image J software, the intensity of the bands was quantified.

RAW 264.7 macrophages = test: RT-qPCR of LPS-induced proinflammatory gene expression; format: cell-based, murine; details: mRNA, LPS 200 ng/mL 6 h, then 300 nM compound 30 min
Text: All chemicals were purchased from commercial suppliers without additional purification required. […] Hits 1–6 compounds were obtained from WuXi AppTec (Shanghai, China) with a purity exceeding 98%. The high-performance liquid chromatography (HPLC) spectra data for each compound were provided in the Supplementary Materials (Figures S2.1–2.6). RAW 264.7 murine macrophages were purchased from the American Type Culture Collection (ATCC, TIB-71). 10% foetal bovine serum (FBS), 100 units/mL of penicillin, and 100 µg/mL of streptomycin were added to the Dulbecco’s modified Eagle’s medium (DMEM). The FBS, penicillin, streptomycin, and DMEM were purchased from Gibco (Grand Island, NY, USA). The cells were cultured in the incubator that was humidified with 5% CO2 and 95% air at 37 °C. The human recombinant MIF was purchased from Abcam (Cambridge, MA, USA) and catalogue number was ab51096. This experiment was carried out in accordance with the relevant literature. […] RAW 264.7 macrophages were subjected to treatment with LPS at a concentration of 200 ng/mL for 6 h. […] The Trizol method was used to extract the total ribonucleic acid (RNA) from the cells. The RNA reverse transcription kit (Invitrogen) was used to synthesise complementary deoxyribonucleic acid (cDNA) according to the manufacturer’s instructions. The SYRB Green qPCR kit and the primers were used for amplification. Thereafter, to standardise the data, the expression levels of the target genes were normalised to GAPDH and calculated by using the 2^−ΔΔCT method. The expression data were presented in the format of fold-change for clear visualisation.

SMILES: COc1ccc(-c2cc(C)nc(SCc3cccc(C(=O)O)c3)n2)cc1 [Hit Z-312, 3-({[4-(4-methoxyphenyl)-6-methyl-2-pyrimidinyl]thio}1methyl)benzoic acid]
Release of pro-inflammatory factors induced by LPS (TNF-α, IL-6, IL-1β) (MIF [1]): suppress the release

Kd (MIF [2]): 290 ± 10 nM
Kd (MIF [3]): 320 ± 10 nM
Effect on MIF interaction with CD74 (MIF-CD74 binding): potently suppressed
SMILES: CCc1ccn2cc(-c3cc(-c4ccccc4)no3)nc2c1 [Hit-1]
Reduction of TNF-α level compared with the LPS group (RAW 264.7 macrophages): 3.7 fold
Inhibitory effect on the IL-1β (RAW 264.7 macrophages; compared with compound 3a): distinctly stronger inhibitory effect
Inhibitory effect on the IL-6 level (RAW 264.7 macrophages; compared with compound 3a): markedly stronger inhibitory effect

Kd (MIF [2]): 810 ± 40 nM
SMILES: Cc1nn(-c2ccccc2)nc1-c1nnc(-c2ccccc2)o1 [Hit-5]

Kd (MIF [2]): 460 ± 30 nM
SMILES: Cc1ccn2cc(-c3cc(-c4ccccc4)no3)nc2c1 [Hit-2]

Kd (MIF [2]): 720 ± 50 nM
SMILES: Cc1nn(-c2ccccc2)nc1-c1nnc(-c2ccc(C(F)(F)F)cc2)o1 [Hit-6]

Kd (MIF [2]): 750 ± 60 nM
SMILES: Cc1nn(-c2ccccc2)nc1-c1nnc(-c2ccc(Cl)cc2)o1 [Hit-4]

SMILES: COC(=O)CC1CC(c2ccc(O)cc2)=NO1 (centres unmarked) [ISO-1]
Release of pro-inflammatory factors induced by LPS (TNF-α, IL-6, IL-1β) (MIF [1]): suppress the release

Kd (MIF [2]): 540 ± 20 nM
SMILES: c1ccc(-c2cc(-c3cn4cccnc4n3)on2)cc1 [Hit-3]

SMILES: Oc1ccc(-n2cc(-c3ccc4ccccc4n3)nn2)cc1 [Hit 3a, reference compound]
Reduction of TNF-α level compared with the LPS group (RAW 264.7 macrophages): 2.2 fold
